Experimental data as given in article PMC5675611, “GZD824 suppresses the growth of human B cell precursor acute lymphoblastic leukemia cells by inhibiting the SRC kinase and PI3K/AKT pathways” (Oncotarget, 2016).

Columns and labels:
[1] = test system: phosphorylated AKT (Ser473); experiment: Western blot of primary pre-B ALL cells; assay type: cell-based, human; conditions: GZD824 1μM, IGF-1 10ng/ML, 24 hours
Method: (§1) Figure 6 GZD824 inhibits PI3K/AKT signaling in pre-B ALL cells A. Cells were harvested from PB, SP, and BM of P#2 xenograft mice and cultured with or without 1μM GZD824 for 24h. Bars represent the mean percentages of AnnexinV+ cells in each group. B. Primary pre-B ALL cells from spleen of P#1 xenograft mouse treated with DMSO, GZD824 (1μM), IGF-1 (10ng/ML), or both. Bars represent the mean percentages of AnnexinV+ cells in each group. C. Western blot analysis of NALM6 cells. Cells were treated with DMSO, GZD824 (1μM), or GZD824 (3μM) for 24 hours. Lysates were analyzed with antibodies against IRS1, phosphate AKT, and AKT. D. Western blot analysis of primary pre-B ALL cells. Primary cells treated with GZD824 (1μM), IGF-1 (10ng/ML), or both for 24 hours. Lysates were analyzed with antibodies against Irs1, phosphate AKT, and AKT.
(§2) For Western blot analysis, 30 μg of total protein extracts prepared from NALM6 or primary pre-B ALL cells from SP of PDX mice were separated on SDS-PAGE and transferred to a PVDF membrane (Bio-Rad, Hercules, CA, USA). The following commercially available antibodies and dilutions were used for Western blotting: human anti-STAT3 (ab119352, Abcam, UK), human anti-phospho-STAT3 (Y705) (ab76315, Abcam, UK), human anti-SRC (ab32102, Abcam, UK), human anti-phospho-SRC (Y419) (ab185617, Abcam, UK), human anti-RB (9313, Cell Signaling Technology, MA, USA), human anti-phospho–RB (Ser807/811) (8516, Cell Signaling Technology, MA, USA), human anti-C-myc (13987, Cell Signaling Technology, MA, USA), anti-AKT (pan) (4691P, Cell Signaling Technology, MA, USA), anti-phospho-AKT (Ser473) (4060P, Cell Signaling Technology, MA, USA), anti-IRS-1 (2390S, Cell Signaling Technology, MA, USA), and human anti–β-actin (4970, Cell Signaling Technology, MA, USA). Western blot analysis was performed with cell lines or primary pre-B ALL cells from SP following GZD824 treatment, and signal intensities were normalized to β-actin signals.

IRS1 = experiment: Western blot of primary pre-B ALL cells; assay type: cell-based, human; conditions: GZD824 1μM, IGF-1 10ng/ML, 24 hours
Method: as §1, §2

NALM6 cells = experiment: Cell-cycle analysis (PI staining, flow cytometry); assay type: cell-based, human
Method: Human pre-B ALL cell lines NALM6 and SUPB15 were purchased from American Type Culture Collection (ATCC, Maryland, USA). All pre-B ALL cell lines were maintained in cell culture media and conditions as recommended by the ATCC. Cells were treated with GZD824 for 24 hours. GZD824 (3μM, 1μM, or 0.5μM) was used in the experiments unless otherwise noted. NALM6 and SUPB15 cells were maintained in RPMI-1640 medium (Gibco, New York, NY, USA) with 10% fetal bovine serum (Biochrom, Melbourne, Australia). Cell cycle analysis was performed by flow cytometry after propidium iodide (PI) staining as described. Approximately 2 × 10^6 cells were suspended in 0.5 ml of phosphate-buffered saline (PBS) and vortexed with 3 ml of 80% ethanol. Cells were fixed at 4°C for 1 hr, washed with PBS, re-suspended in PBS, and vortexed vigorously. Cells were re-suspended in 1 ml of PBS containing 50 μg/ml of DNase-free RNase A (EN0531, Thermo Fisher scientific, Waltham, USA) and 50 μg/ml of propidium iodide PI (P4170, Sigma Aldrich, St. Louis, MO, USA). Cells were stained for at least 1 hr at room temperature in the dark. Stained cells were then subjected to flow cytometric analysis by an Accuri™ C6 (BD Biosciences, CA, USA).

[2] = test system: STAT3 target genes (BCL-XL, CCND1, CDK4, CDKN1A); experiment: qRT-PCR of STAT3 target genes; assay type: cell-based, human; conditions: 3 μM, 24 hours, normalized to GAPDH, vs control
Method: Figure 5 GZD824 inhibits the SRC kinase in pre-B ALL cells A-C. Western blot analysis of […]-treated NALM6 cells. Cells were treated with DMSO, GZD824 (1μM), or GZD824 (3μM) for 24 hours. Lysates were analyzed with antibodies to (A) phospho-SRC and SRC; (B) phospho-STAT3 and STAT3; and (C) phospho-Rb, Rb, and C-Myc. D. qRT-PCR products of BCL-XL, CCND1, CDK4, and CCK[…] mRNA were normalized to GAPDH and presented as fold increase or decrease compared to control, 24 hours after treatment with 3 μM GZD824. E. NALM6 cells were treated with GZD824, SRC inhibitor (KX2-391), STAT3 inhibitor (HO-3867), or DMSO for 24 hours. Statistical analysis of Annexin V-positive cells in 3μM of drug treated NALM6 cells. All data from independent experiments are presented as mean ± SEM. Significance values: ^*P<0.05; ^**P<0.01; ^***P<0.001. RNA was extracted using TRIzol reagent (15596-026, Invitrogen, Grand Island, NY, USA), according to the manufacturer's recommended protocol. qRT-PCR was performed using Applied Biosystems StepOne and StepOne Plus Real-Time PCR Systems (Foster City, CA, USA). The experiments were repeated a minimum of three times to confirm the results.

SUPB15 = experiment: CCK8 viability / proliferation assay; assay type: cell-based; conditions: Homo sapiens, SUP-B15, 24 h, read-out: IC50, inhibition of proliferation
Method: (§3) Viability was calculated relative to time-matched untreated controls. D824 is short for GZD824 in the following figure. B. Left: representative flow cytometric analysis of NALM6 and SUPB15 cells treated with DMSO, 1μM, or 3μM of GZD824 for 24 hours. Right: Statistical analysis of AnnexinV-positive cells in GZD824 treated NALM6 and SUPB15 cells. C. Left: representative images of cell cycle distribution in NALM6 and SUPB15 cells treated with DMSO or 3μM of GZD824 for 24 hours. Right: Statistical analysis of the distribution of cells in G0/G1 phases in GZD824 treated cells. Data are shown as the mean ± SEM (error bars) from three independent experiments. Significance values: ^*P<0.05; ^**P<0.01; ^***P<0.001. […] For each plot they are listed in the order upper left, upper right, lower left, lower right.

NALM6 = experiment: CCK8 viability / proliferation assay; assay type: cell-based; conditions: Homo sapiens, NALM-6, 24 h, read-out: IC50, inhibition of proliferation
Method: as §3

Cc1ccc(C(=O)Nc2ccc(CN3CCN(C)CC3)c(C(F)(F)F)c2)cc1C#Cc1cnc2[nH]ncc2c1 [GZD824]
levels of phosphorylated AKT (Ser473) [1]: reduction
levels of IRS1 (IRS1): reduction
proportions of the G0/G1 fraction (NALM6 cells; NALM6, 500 nM): increased
percentage of the G0/G1 fraction (NALM6 cells; NALM6, 3μM, 24 hours): 71.6%
BCL-XL mRNA expression [2]: downregulation
CCKN1A (CDKN1A) mRNA expression [2]: upregulated
CCND1 mRNA expression [2]: downregulation
CDK4 mRNA expression [2]: downregulation
IC50 (SUPB15): > 500 nM
IC50 (NALM6): 500 nM
